Calls of active or inactive are those of the source. The rule behind the calls is not given here.
Tests used:
[1] = system: HepG2; experiment: Antiproliferative activity against human HepG2 cells assessed as reduction in cell viability incubated for 48 hrs by MTT assay; assay type: functional, cell-based; conditions: HepG2, 48 h
[2] = system: T-24; experiment: Antiproliferative activity against human T24 cells assessed as reduction in cell viability incubated for 48 hrs by MTT assay; assay type: functional, cell-based; conditions: T-24, 48 h
[3] = system: MGC-803; experiment: Induction of DNA damage in human MGC803 cells assessed as increase in gamma-H2AX expression at 2.5 uM after 24 hrs by Western blot analysis; assay type: functional, cell-based
[4] = system: Calf thymus DNA; experiment: Binding affinity to calf thymus DNA assessed as hyperchromic effect at 10:1 compound to DNA ratio incubated for 5 mins by UV-Vis spectroscopy; assay type: nucleic-acid assay; conditions: Bos taurus
[5] = system: Quadruplex DNA; experiment: Binding affinity to human HTG21 G-quadruplex DNA assessed as Stern-Volmer quenching constant by fluorometric titration assay; assay type: nucleic-acid assay
[6] = system: Quadruplex DNA; experiment: Binding affinity to human Pu27 G-quadruplex DNA assessed as Stern-Volmer quenching constant by fluorometric titration assay; assay type: nucleic-acid assay
[7] = system: Quadruplex DNA; experiment: Binding affinity to human c-Kit-1 G-quadruplex DNA assessed as Stern-Volmer quenching constant by fluorometric titration assay; assay type: nucleic-acid assay
[8] = system: Calf thymus DNA; experiment: Binding affinity to calf thymus DNA at 10 uM incubated for 5 mins by CD spectroscopy; assay type: nucleic-acid assay; conditions: Bos taurus
[9] = system: Quadruplex DNA; experiment: Binding affinity to human HTG21 G-quadruplex DNA at 10 uM incubated for 5 mins by CD spectroscopy; assay type: nucleic-acid assay
[10] = system: MGC-803; experiment: Cell cycle arrest in human MGC803 cells assessed as accumulation of cells at S phase at 1 uM incubated for 48 hrs by propidium iodide staining based flow cytometry (reference value: 32.97%); assay type: functional
[11] = system: MGC-803; experiment: Cell cycle arrest in human MGC803 cells assessed as accumulation of cells at S phase at 2.5 uM incubated for 48 hrs by propidium iodide staining based flow cytometry (reference value: 32.97%); assay type: functional
[12] = system: MGC-803; experiment: Cell cycle arrest in human MGC803 cells assessed as accumulation of cells at G2/M phase at 1 uM incubated for 48 hrs by propidium iodide staining-based flow cytometry (reference value: 13.07%); assay type: functional
[13] = system: MGC-803; experiment: Cell cycle arrest in human MGC803 cells assessed as accumulation of cells at G2/M phase at 2.5 uM incubated for 48 hrs by propidium iodide staining-based flow cytometry (reference value: 13.07%); assay type: functional
[14] = system: MGC-803; experiment: Cell cycle arrest in human MGC803 cells assessed as accumulation of cells at G1 phase at 0.5 uM incubated for 48 hrs by propidium iodide staining-based flow cytometry (reference value: 53.96%); assay type: functional
[15] = system: MGC-803; experiment: Cell cycle arrest in human MGC803 cells assessed as down regulation of CDK2 expression at 0.5 to 2.5 uM incubated for 24 hrs by immunoblot analysis; assay type: functional, cell-based
[16] = system: MGC-803; experiment: Cell cycle arrest in human MGC803 cells assessed as increase in p21 expression at 0.5 to 2.5 uM incubated for 24 hrs by Western blot analysis; assay type: functional, cell-based
[17] = system: MGC-803; experiment: Induction of apoptosis in human MGC803 cells assessed as viable cells at 1 uM incubated for 24 hrs by Annexin V-FITC/propidium iodide staining based flow cytometry (reference value: 96.53+/-2.11%); assay type: functional; conditions: MGC-803, 24 h, read-out: Activity
[18] = system: MGC-803; experiment: Induction of apoptosis in human MGC803 cells assessed as viable cells at 2.5 uM incubated for 24 hrs by Annexin V-FITC/propidium iodide staining based flow cytometry (reference value: 96.53+/-2.11%); assay type: functional; conditions: MGC-803, 24 h, read-out: Activity
[19] = system: MGC-803; experiment: Induction of apoptosis in human MGC803 cells assessed as early apoptotic cells at 1 uM incubated for 24 hrs by Annexin V-FITC/propidium iodide staining based flow cytometry (reference value: 0.97 +/- 0.10 %); assay type: functional
[20] = system: MGC-803; experiment: Induction of apoptosis in human MGC803 cells assessed as late apoptotic cells at 2.5 uM incubated for 24 hrs by Annexin V-FITC/propidium iodide staining based flow cytometry (reference value: 0.69 +/- 0.05 %); assay type: functional
[21] = system: MGC-803; experiment: Induction of apoptosis in human MGC803 cells assessed as necrotic cells at 0.5 uM incubated for 24 hrs by Annexin V-FITC/propidium iodide staining based flow cytometry (reference value: 1.81 +/- 0.09 %); assay type: functional
[22] = system: MGC-803; experiment: Induction of apoptosis in human MGC803 cells assessed as nuclear condensation at 2.5 uM after 24 hrs by Hoechst 33258 staining-based fluorescence microscopic method; assay type: functional, cell-based
[23] = system: MGC-803; experiment: Induction of apoptosis in human MGC803 cells assessed as increase in Bak levels at 0.5 to 2.5 uM after 24 hrs by Western blot analysis; assay type: functional, cell-based
[24] = system: MGC-803; experiment: Induction of apoptosis in human MGC803 cells assessed as increase in Apaf-1 expression at 0.5 to 2.5 uM after 24 hrs by Western blot analysis; assay type: functional, cell-based
[25] = system: MGC-803; experiment: Induction of apoptosis in human MGC803 cells assessed as activated caspase-3 level at 2.5 uM after 24 hrs by FITC staining-based flow cytometric analysis (Rvb= 3.46%); assay type: functional
[26] = system: MGC-803; experiment: Induction of apoptosis in human MGC803 cells assessed as activated caspase-9 level at 2.5 uM after 24 hrs by FITC staining-based flow cytometric analysis (Rvb= 3.14%); assay type: functional
[27] = system: MGC-803; experiment: Induction of apoptosis in human MGC803 cells assessed as increase in AIF expression at 0.5 to 2.5 uM after 24 hrs by Western blot analysis; assay type: functional, cell-based
[28] = system: MGC-803; experiment: Induction of mitochondrial membrane depolarization in human MGC803 cells at 0.5 uM incubated for 24 hrs by JC-1 dye-based flow cytometric analysis (Rvb 3.37%); assay type: functional
[29] = system: MGC-803; experiment: Induction of mitochondrial membrane depolarization in human MGC803 cells at 1 uM incubated for 24 hrs by JC-1 dye-based flow cytometric analysis (Rvb 3.37%); assay type: functional
[30] = system: MGC-803; experiment: Induction of mitochondrial membrane depolarization in human MGC803 cells at 2.5 uM incubated for 24 hrs by JC-1 dye-based flow cytometric analysis (Rvb 3.37%); assay type: functional
[31] = system: MGC-803; experiment: Induction of apoptosis in human MGC803 cells assessed as increase in intracellular calcium release incubated for 24 hrs by […] AM dye-based flow cytometric analysis; assay type: functional, cell-based
[32] = system: MGC-803; experiment: Induction of apoptosis in human MGC803 cells assessed as increase in ROS generation incubated for 24 hrs by DCFH-DA dye-based flow cytometric analysis; assay type: functional, cell-based
[33] = Toxicity in human MGC803 cell xenografted BALB/C mouse assessed as decrease in body weight at 6 to 12 mg/kg, ip administered every other day for 2 weeks measured during compound dosing; assay type: organism-based; conditions: in vivo, 336 h
[34] = system: MGC-803; experiment: Cell cycle arrest in human MGC803 cells assessed as accumulation of cells at G2/M phase incubated for 48 hrs by propidium iodide staining-based flow cytometry; assay type: functional
[35] = system: MGC-803; experiment: Cell cycle arrest in human MGC803 cells assessed as accumulation of cells at G1 phase at 1 uM incubated for 48 hrs by propidium iodide staining-based flow cytometry (reference value: 53.96%); assay type: functional
[36] = system: MGC-803; experiment: Induction of apoptosis in human MGC803 cells assessed as cell shrinkage at 0.5 to 2.5 uM after 24 hrs by Hoechst 33258 staining-based fluorescence microscopic method; assay type: functional

In the case of `CN(C)CCCNc1c2c(nc3ccc(F)cc13)-c1ccccc1C2`, the IC50 [1] is reported as 1770 nM, the IC50 [2] is reported as 840 nM and the Activity [3] is reported as “Active”. The Activity [4] was “Active”, the Kq [5] was 1.56 ×10⁷ No_unit and the Kq [6] was 1.5 ×10⁷ No_unit. For the same molecule, the Kq [7] was 6.26 ×10⁶ No_unit, the Activity [8] was “Active” and the Activity [9] was “Active”. It also gave an Activity [10] of 52.87%, an Activity [11] of 59.44% and an Activity [12] of 23.02%. For the same molecule, the Activity [13] was 31.82%, the Activity [14] was 51.5% and the Activity [15] was “Active”. For the same molecule, the Activity [16] was “Active”, the viability at 1 µM [17] was 58.3% and the viability at 2.5 µM [18] was 37.3%. The Activity [19] was 22%, the Activity [20] was 7.45% and the Activity [21] was 1.76%. For the same molecule, the Activity [22] was “Active”, the Activity [23] was “Active” and the Activity [24] was “Active”. The Activity [25] was 45.1%, the Activity [26] was 46.9% and the Activity [27] was “Active”. For the same molecule, the Activity [28] was 23.6%, the Activity [29] was 89.1% and the Activity [30] was 97.5%. The Activity [31] was “Dose-dependent effect”, the Activity [32] was “Dose-dependent effect” and the Activity [33] was “Non-Toxic”. The Activity [34] was “Dose-dependent effect”, the Activity [35] was 24.11% and the Activity [36] was “Active”.

Reference: ChEMBL document CHEMBL4346660, “Cryptolepine and aromathecin based mimics as potent G-quadruplex-binding, DNA-cleavage and anticancer agents: Design, synthesis and DNA targeting-induced apoptosis” (Eur J Med Chem, 2019)
